Test [1] deals with cariogenic plaque bacteria (standard strains). In words: Inhibitory effect of bacterial growth, standard strains. To be noted: ranking; FIG. 3. The class given is cell-based, Streptococcus, Lactobacillus and Actinomyces. The protocol:
In order to evaluate how medium-chain fatty acids influence bacterial growth of cariogenic plaque bacteria, the influence on each bacteria was evaluated after selecting seven kinds of bacterial strains as standard bacteria among cariogenic plaque bacteria. […] The results that medium-chain fatty acids have on influencing bacterial growth of cariogenic plaque bacteria is shown in FIG. 3. And the result of measuring inhibitory effect of bacterial growth of 20 kinds of cariogenic plaque bacteria separated from the human oral cavities is shown in FIG. 4.

Test [2] has the same test system. Kind of test: Inhibitory effect of acid production, standard strains. Format: cell-based, Streptococcus, Lactobacillus and Actinomyces. Conditions: ranking; FIG. 1. The protocol:
In order to identify the action by which medium-chain fatty acids inhibit acid production, the inhibitory effect and concentration of acid production were determined in seven kinds of standard cariogenic plaque bacteria. Also, the inhibitory effect of acid production for 20 kinds of cariogenic plaque bacteria, separated from the human oral cavity, was assayed. Liquid culture media used were: Todd-Hewitt broth of Streptococcus, Lactobacilli MRS broth of Lactobacillus and Brain Heart Infusion broth of Actinomyces. […] The final pH of the culture medium was measured after culturing for 24^~ 48 hours in 10% CO2 incubator.

Test [3] relates to cariogenic plaque bacteria. Kind of test: Inhibitory effect on extracellular polysaccharide synthesis (summary). The class given is cell-based, Streptococcus, Lactobacillus and Actinomyces. Conditions: 1 mM; ranking. As to the method: (§1) In order to identify the effect by which medium-chain fatty acids inhibit plaque matrix formation, inhibitory effect and concentration of extracellular polysaccharide synthesis were determined in seven kinds of standard cariogenic plaque bacteria. Also, the inhibitory effect of extracellular polysaccharide synthesis for 20 kinds of cariogenic plaque bacteria, separated from the human oral cavity, was measured. Liquid culture media used were: Todd-Hewitt broth of Streptococcus, Lactobacilli MRS broth of Lactobacillus and Brain Heart Infusion broth of Actinomyces. 0.1 ml of bacterial (or cell) suspension (OD600 =0.5) of each bacteria was inoculated to 5.9 ml of culture media containing 1 mM of medium-chain fatty acids and 2% of glucose, and was cultured for 24^~ 48 hours in 10% CO2 incubator. After culturing, the resultant was centrifuged to precipitate at 5,000×g for 15 minutes, then soluble extracellular polysaccharide was separated and purified from the supernatant and insoluble extracellular polysaccharide from the cell pellet, and then these were quantified. So the experimental results that represent inhibitory effect of medium-chain fatty acids upon extracellular polysaccharide synthesis, are shown in table 1, 2, 3 and 4.

The test system of another test is L. casei ATCC 4646. Kind of test: Inhibitory effect on extracellular polysaccharide synthesis, standard strain. Format: cell-based, Lactobacillus casei. The protocol: as §1, with “quantified.” for “quantified. So the experimental results that represent inhibitory effect of medium-chain fatty acids upon extracellular polysaccharide synthesis, are shown in table 1, 2, 3 and 4.”

For another test, the system named is L. casei ATCC 27216. The test is described as above. Conditions: 1 mM, 2% glucose, 24-48 hours. Format: cell-based, Lactobacillus casei. As to the method:
as §1, with “quantified.” for “quantified. So the experimental results that represent inhibitory effect of medium-chain fatty acids upon extracellular polysaccharide synthesis, are shown in table 1, 2, 3 and 4.”

The next test deals with Lactobacillus. Kind of test: Inhibitory effect on extracellular polysaccharide synthesis, summary over Lactobacillus standard strains. Format: cell-based. Conditions: 1 mM, compared with control group, according to strains, read-out: synthesis of soluble extracellular polysaccharide inhibited/reduced by. As to the method: as §1, with “quantified.” for “quantified. So the experimental results that represent inhibitory effect of medium-chain fatty acids upon extracellular polysaccharide synthesis, are shown in table 1, 2, 3 and 4.”

Another test relates to Streptococcus. In words: Inhibitory effect on extracellular polysaccharide synthesis, summary over Streptococcus standard strains. Format: cell-based. Conditions: 1 mM, compared with control group, range over strains, read-out: synthesis of soluble extracellular polysaccharide inhibited by. As to the method:
as §1, with “quantified.” for “quantified. So the experimental results that represent inhibitory effect of medium-chain fatty acids upon extracellular polysaccharide synthesis, are shown in table 1, 2, 3 and 4.”

Another test concerns S. mutans JC-2. In words: Inhibitory effect on extracellular polysaccharide synthesis, standard strain. The class given is cell-based, Streptococcus mutans. To be noted: 1 mM. As to the method: as §1, with “quantified.” for “quantified. So the experimental results that represent inhibitory effect of medium-chain fatty acids upon extracellular polysaccharide synthesis, are shown in table 1, 2, 3 and 4.”

The next test has as its system S. mutans BHT. The description is as above. Format: cell-based, Streptococcus mutans. To be noted: 1 mM. As to the method: as §1, with “quantified.” for “quantified. So the experimental results that represent inhibitory effect of medium-chain fatty acids upon extracellular polysaccharide synthesis, are shown in table 1, 2, 3 and 4.”
For a further test, the system named is S. mutans 10449. The test is described as above. The class given is cell-based, Streptococcus mutans. Conditions: 1 mM. The protocol:
as §1, with “quantified.” for “quantified. So the experimental results that represent inhibitory effect of medium-chain fatty acids upon extracellular polysaccharide synthesis, are shown in table 1, 2, 3 and 4.”

A further test has as its system A. viscosus ATCC 15987. Described as above. Format: cell-based. Conditions: 1 mM, 2% glucose, 24-48 hours. As to the method:
as §1, with “quantified.” for “quantified. So the experimental results that represent inhibitory effect of medium-chain fatty acids upon extracellular polysaccharide synthesis, are shown in table 1, 2, 3 and 4.”

The test system of another test is S. sanguis 10556. Described as above. Format: cell-based. Conditions: 1 mM. As to the method:
as §1, with “quantified.” for “quantified. So the experimental results that represent inhibitory effect of medium-chain fatty acids upon extracellular polysaccharide synthesis, are shown in table 1, 2, 3 and 4.”

Test [4] in a line: Extracellular polysaccharide in liquid medium with fatty acid, no bacteria. The protocol: as §1, with “quantified.” for “quantified. So the experimental results that represent inhibitory effect of medium-chain fatty acids upon extracellular polysaccharide synthesis, are shown in table 1, 2, 3 and 4.”

Consider `CCCCCCCCCC(=O)O` [C10, sodium capriate], for which the “inhibitory effect of bacterial growth, sequence” value in test [1] is “sodium laurate>sodium capriate>sodium nonanoate”. In addition, the “inhibitory effect of acid production, sequence” value in [2] is “sodium laurate>sodium capriate>sodium nonanoate”. In test [3], the “inhibitory effect of extracellular polysaccharide synthesis, sequence” value is recorded as “sodium laurate>sodium capriate>sodium nonanoate”.
For the compound `CCCCCCCCC(=O)[O-].[Na+]` [C9, sodium nonanoate], the “inhibitory effect of bacterial growth, sequence” value in test [1] is on record as “sodium laurate>sodium capriate>sodium nonanoate”. In addition, the “Extracellular polysaccharide, insoluble” value in the test with L. casei ATCC 4646 (1 mM, 2% glucose, 24-48 hours, control 5.3 ± 0.5) came out at 3.8 ± 0.5 µg/mL; in the test with L. casei ATCC 27216 (control 5.9 ± 0.4), 5.1 ± 0.5 µg/mL; in the test with S. mutans JC-2 (2% glucose, 24-48 hours, control 1.1 ± 0.2) it was 0.9 ± 0.3 µg/mL; in the test with S. mutans BHT (2% glucose, 24-48 hours, control 0.5 ± 0.1), 0.3 ± 0.1 µg/mL; in the test on S. mutans 10449 (2% glucose, 24-48 hours, control 0.8 ± 0.3), 0.6 ± 0.2 µg/mL; in the test on A. viscosus ATCC 15987 (control 2.1 ± 0.2) it was 1.4 ± 0.5 µg/mL. For the same compound, in the test on S. sanguis 10556 (2% glucose, 24-48 hours, control 0.6 ± 0.3), the “Extracellular polysaccharide, insoluble” value turned out to be 0.5 ± 0.2 µg/mL. Further, the “Extracellular polysaccharide, soluble” value in the test with L. casei ATCC 4646 (1 mM, 2% glucose, 24-48 hours, control 43.6 ± 7.0) worked out at 31.9 ± 4.0 µg/mL; in the test on L. casei ATCC 27216 (control 67.3 ± 4.5), 70.1 ± 3.3 µg/mL; with S. mutans JC-2 (2% glucose, 24-48 hours, control 34.4 ± 3.9) it was 6.2 ± 3.5 µg/mL; with S. mutans 10449 (2% glucose, 24-48 hours, control 74.6 ± 1.8), 50.8 ± 12.2 µg/mL; in the test with A. viscosus ATCC 15987 (control 222.8 ± 3.3), 241.6 ± 3.9 µg/mL; in the test with S. sanguis 10556 (2% glucose, 24-48 hours, control 25.9 ± 4.3), 17.4 ± 8.9 µg/mL. The “Extracellular polysaccharide, soluble” value turned out to be 2.0 ± 0.7 µg/mL in test [4] (Table 1, 1 mM); 4.6 ± 0.2 µg/mL in test [4] (Table 2, 1 mM); 8.2 ± 0.4 µg/mL in [4] (Table 3, 1 mM). Moreover, the inhibition at 1000 µM with L. casei ATCC 4646 (Lacticaseibacillus casei, ATCC4646, read-out: Inhibitory rate, soluble) was 27%; with Lactobacillus, 27%; in the test on Streptococcus it was 32 to 82%; in the test with S. mutans JC-2 (Streptococcus mutans, JC2, vs control, read-out: Inhibitory rate, soluble), 82%; in the test on S. mutans BHT (Streptococcus mutans, vs control, read-out: Inhibitory rate, soluble), 75%; in the test with S. mutans 10449 (Streptococcus mutans, 10449, vs control, read-out: Inhibitory rate, soluble) it was 32%. Besides, the inhibition at 1000 µM in the test on S. sanguis 10556 (vs control, read-out: Inhibitory rate, soluble) worked out at 33%. Besides, the “inhibitory effect of acid production, sequence” value in [2] is given as “sodium laurate>sodium capriate>sodium nonanoate”. Also, in [3], the “inhibitory effect of extracellular polysaccharide synthesis, sequence” value is given as “sodium laurate>sodium capriate>sodium nonanoate”.
